Patent US20260365670A1, “EGFR INHIBITORS AND USES THEREOF” (DIZAL (JIANGSU) PHARMACEUTICAL CO., LTD., priority 2022, published 2026)
Read-outs that look alike come from different tables or passages of the source.

Assays:
EGFR L858R = biological target: T1, EGFR L858R (Homo sapiens, UniProt P00533, L858R); test: Inhibition of EGFR L858R biochemical enzymatic activity (HTRF); conditions: 1 mM ATP
T1 construct: purchased Carna Bio
Summary of the method: (§1)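 Time-resolved FRET assay of EGFR substrate phosphorylation. Conditions: 1 μM TK substrate-biotin, 1 mM ATP, Mg/Mn buffer, 1 h at RT. IC50 from 4-parameter curve fit.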

EGFR wild type = biological target: T2, EGFR wild type (Homo sapiens, UniProt P00533); test: Inhibition of EGFR wild type biochemical enzymatic activity (HTRF); conditions: 1 mM ATP
T2 construct: purchased Carna Bio
Summary of the method: as §1

A-431 = test: Cell proliferation assay, A-431 cells (GI50, Table 6); format: cell-based
EGFR Exon19Del/T790M = biological target: T3, EGFR Exon19Del/T790M (Homo sapiens, UniProt P00533, DEL746-750/T790M); test: Inhibition of EGFR Exon19Del/T790M biochemical enzymatic activity (HTRF); conditions: 1 mM ATP
T3 construct: purchased Carna Bio
T3 sequence (P00533 with tags, fused parts or gaps DEL746-750/T790M limits assumed): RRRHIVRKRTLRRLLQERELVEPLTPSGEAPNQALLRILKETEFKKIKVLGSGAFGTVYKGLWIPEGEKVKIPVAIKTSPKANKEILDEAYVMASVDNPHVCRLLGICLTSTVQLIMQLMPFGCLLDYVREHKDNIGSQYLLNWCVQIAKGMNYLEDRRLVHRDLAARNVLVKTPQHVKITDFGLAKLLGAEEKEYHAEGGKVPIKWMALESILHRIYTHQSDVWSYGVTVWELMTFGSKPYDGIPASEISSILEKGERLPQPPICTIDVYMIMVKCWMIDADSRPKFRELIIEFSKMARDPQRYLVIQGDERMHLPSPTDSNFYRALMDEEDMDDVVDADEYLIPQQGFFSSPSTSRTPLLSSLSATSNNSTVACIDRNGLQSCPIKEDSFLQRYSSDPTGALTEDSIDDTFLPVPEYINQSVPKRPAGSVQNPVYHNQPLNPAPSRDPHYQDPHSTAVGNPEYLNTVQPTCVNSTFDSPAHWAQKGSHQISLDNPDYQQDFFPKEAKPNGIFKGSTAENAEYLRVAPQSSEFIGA
Summary of the method: as §1

[1] = biological target: T4, EGFR[T790M/C797S/d746-750] (Homo sapiens, UniProt P00533, C797S/DEL746-750/T790M); test: Inhibition of EGFR[T790M/C797S/d746-750] biochemical enzymatic activity (HTRF)
T4 construct: purchased Carna Bio
Summary of the method: as §1

EGFR Exon19Del = biological target: T5, EGFR Exon19Del (Homo sapiens, UniProt P00533, DEL746-750); test: Inhibition of EGFR Exon19Del biochemical enzymatic activity (HTRF); conditions: read-out: IC50 @Del19
T5 construct: purchased Carna Bio
T5 sequence (P00533 with tags, fused parts or gaps DEL746-750 limits assumed): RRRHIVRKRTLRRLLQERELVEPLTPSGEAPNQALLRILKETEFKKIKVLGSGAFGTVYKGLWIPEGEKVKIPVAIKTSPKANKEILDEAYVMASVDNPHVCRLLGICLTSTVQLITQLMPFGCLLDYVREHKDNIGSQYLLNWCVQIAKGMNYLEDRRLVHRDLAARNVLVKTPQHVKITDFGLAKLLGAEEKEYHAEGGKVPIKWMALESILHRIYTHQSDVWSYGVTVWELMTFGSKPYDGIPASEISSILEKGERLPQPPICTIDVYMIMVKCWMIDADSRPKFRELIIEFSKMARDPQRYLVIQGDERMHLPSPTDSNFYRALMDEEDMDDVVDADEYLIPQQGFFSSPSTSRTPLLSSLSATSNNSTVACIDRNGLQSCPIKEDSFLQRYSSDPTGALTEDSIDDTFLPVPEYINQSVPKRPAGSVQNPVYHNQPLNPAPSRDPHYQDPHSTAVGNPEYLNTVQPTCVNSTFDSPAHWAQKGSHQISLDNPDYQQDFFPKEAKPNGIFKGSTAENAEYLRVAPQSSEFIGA
Summary of the method: as §1

EGFR L858R/T790M = biological target: T6, EGFR L858R/T790M (Homo sapiens, UniProt P00533, L858R/T790M); test: Inhibition of EGFR L858R/T790M biochemical enzymatic activity (HTRF); conditions: 1 mM ATP
T6 construct: purchased Carna Bio
Summary of the method: as §1

EGFR[T790M/C797S/L858R] = biological target: T7, EGFR[T790M/C797S/L858R] (Homo sapiens, UniProt P00533, C797S/L858R/T790M); test: Inhibition of EGFR[T790M/C797S/L858R] biochemical enzymatic activity (HTRF); conditions: 1 mM ATP
T7 construct: purchased Carna Bio
T7 sequence (P00533 25-1210 T790M/C797S/L858R): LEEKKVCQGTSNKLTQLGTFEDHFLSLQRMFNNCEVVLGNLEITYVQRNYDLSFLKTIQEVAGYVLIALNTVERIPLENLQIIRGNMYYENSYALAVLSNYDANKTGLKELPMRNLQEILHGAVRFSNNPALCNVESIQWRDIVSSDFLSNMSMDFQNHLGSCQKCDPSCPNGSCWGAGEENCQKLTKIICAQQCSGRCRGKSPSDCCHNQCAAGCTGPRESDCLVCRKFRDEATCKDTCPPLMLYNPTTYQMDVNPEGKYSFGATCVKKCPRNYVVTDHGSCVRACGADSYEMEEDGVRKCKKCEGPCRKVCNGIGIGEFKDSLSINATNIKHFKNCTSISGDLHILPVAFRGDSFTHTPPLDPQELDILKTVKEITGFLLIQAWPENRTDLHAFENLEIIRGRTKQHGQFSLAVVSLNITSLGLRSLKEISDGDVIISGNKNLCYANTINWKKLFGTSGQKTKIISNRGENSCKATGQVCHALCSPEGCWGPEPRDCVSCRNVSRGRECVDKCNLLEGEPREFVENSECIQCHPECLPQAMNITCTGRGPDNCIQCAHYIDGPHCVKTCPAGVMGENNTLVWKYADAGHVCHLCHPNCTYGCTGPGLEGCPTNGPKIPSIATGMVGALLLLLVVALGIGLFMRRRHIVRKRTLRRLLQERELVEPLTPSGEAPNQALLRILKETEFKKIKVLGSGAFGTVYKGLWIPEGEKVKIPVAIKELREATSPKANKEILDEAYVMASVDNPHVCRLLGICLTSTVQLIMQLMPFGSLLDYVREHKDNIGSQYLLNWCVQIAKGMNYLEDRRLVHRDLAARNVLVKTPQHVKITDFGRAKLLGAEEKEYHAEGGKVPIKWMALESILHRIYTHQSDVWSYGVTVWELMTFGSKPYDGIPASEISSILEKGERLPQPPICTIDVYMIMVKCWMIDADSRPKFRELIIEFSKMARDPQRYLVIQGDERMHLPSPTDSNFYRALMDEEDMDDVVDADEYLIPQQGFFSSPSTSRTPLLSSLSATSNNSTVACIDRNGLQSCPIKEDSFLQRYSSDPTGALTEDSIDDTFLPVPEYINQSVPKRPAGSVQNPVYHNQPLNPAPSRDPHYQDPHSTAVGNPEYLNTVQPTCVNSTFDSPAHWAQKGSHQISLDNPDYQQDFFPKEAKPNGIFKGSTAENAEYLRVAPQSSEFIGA
Summary of the method: as §1

[2] = test system: Ba/F3 cells expressing EGFR mutations; test: Cell proliferation assay, Ba/F3 cells expressing EGFR mutations (CellTiter-Glo, 72 hours); format: cell-based
Summary of the method: (§2)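 GI50 is the concentration giving 50% proliferation inhibition. Growth for this was normalised to a baseline viability reading taken when compound was added, and to DMSO wells. PC-9 (500 cells/well) and mutant-EGFR Ba/F3 (5000 cells/well) are treated after overnight seeding in RPMI1640-based medium.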

EGFR (d746-750 C797S) = biological target: T8, EGFR (d746-750 C797S) (Homo sapiens, UniProt P00533, C797S/DEL746-750); test: Inhibition of EGFR (d746-750 C797S) biochemical enzymatic activity (HTRF); conditions: 1 mM ATP
T8 construct: purchased signalchem
Summary of the method: as §1

EGFR (C797S L858R) = biological target: T9, EGFR (C797S L858R) (Homo sapiens, UniProt P00533, C797S/L858R); test: Inhibition of EGFR (C797S L858R) biochemical enzymatic activity (HTRF); conditions: 1 mM ATP
T9 construct: purchased signalchem
T9 sequence (P00533 25-1210 C797S/L858R): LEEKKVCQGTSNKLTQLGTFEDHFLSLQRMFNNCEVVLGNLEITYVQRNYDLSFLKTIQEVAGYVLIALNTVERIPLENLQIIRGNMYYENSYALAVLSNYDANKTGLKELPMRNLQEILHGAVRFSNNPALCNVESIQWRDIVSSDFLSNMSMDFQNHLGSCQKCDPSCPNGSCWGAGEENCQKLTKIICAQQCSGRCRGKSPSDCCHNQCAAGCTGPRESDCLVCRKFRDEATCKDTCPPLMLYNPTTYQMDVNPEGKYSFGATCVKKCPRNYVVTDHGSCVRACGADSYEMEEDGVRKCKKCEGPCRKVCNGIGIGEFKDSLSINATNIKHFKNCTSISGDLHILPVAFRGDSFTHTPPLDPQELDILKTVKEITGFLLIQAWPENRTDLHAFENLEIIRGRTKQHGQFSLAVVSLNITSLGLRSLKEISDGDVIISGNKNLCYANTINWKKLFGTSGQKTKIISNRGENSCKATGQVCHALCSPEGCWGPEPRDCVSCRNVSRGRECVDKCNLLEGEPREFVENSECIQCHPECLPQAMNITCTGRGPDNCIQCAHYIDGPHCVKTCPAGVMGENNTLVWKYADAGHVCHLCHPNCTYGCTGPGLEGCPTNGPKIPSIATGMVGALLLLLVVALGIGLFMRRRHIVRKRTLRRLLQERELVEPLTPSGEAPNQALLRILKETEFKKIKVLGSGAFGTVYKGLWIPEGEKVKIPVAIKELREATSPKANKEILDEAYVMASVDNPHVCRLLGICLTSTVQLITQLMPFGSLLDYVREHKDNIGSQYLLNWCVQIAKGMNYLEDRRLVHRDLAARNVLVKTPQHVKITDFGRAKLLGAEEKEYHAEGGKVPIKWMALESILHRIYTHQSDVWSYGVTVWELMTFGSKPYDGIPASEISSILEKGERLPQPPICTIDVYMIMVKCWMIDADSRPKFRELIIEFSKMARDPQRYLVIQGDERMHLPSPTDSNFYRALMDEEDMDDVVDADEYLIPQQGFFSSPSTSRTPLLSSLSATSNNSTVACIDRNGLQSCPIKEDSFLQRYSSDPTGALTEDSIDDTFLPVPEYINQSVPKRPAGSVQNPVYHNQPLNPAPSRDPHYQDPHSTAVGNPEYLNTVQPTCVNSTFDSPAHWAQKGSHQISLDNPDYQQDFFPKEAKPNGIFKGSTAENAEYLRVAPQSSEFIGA
Summary of the method: as §1

PC-9 = test: Cell proliferation assay, PC-9 cells (CellTiter-Glo, 72 hours); format: cell-based; conditions: PC9 cells, read-out: GI50 PC9
Summary of the method: as §2

[3] = 1 h at room temperature, read-out: IC50 @L858R
[4] = EGFR wild type, 1 h at room temperature, read-out: IC50 @WT
[5] = EGFR Exon19Del/T790M, 1 h at room temperature, read-out: IC50 @Del19-T790M
[6] = EGFR[T790M/C797S/d746-750], 1 mM ATP, 1 h at room temperature, read-out: IC50 @T790M - C797S - Del19
[7] = EGFR Exon19Del, 1 mM ATP, 1 h at room temperature
[8] = EGFR L858R/T790M, 1 h at room temperature, read-out: IC50 @L858R-T790M
[9] = EGFR[T790M/C797S/L858R], 1 h at room temperature, read-out: IC50 @T790M- C797S - L858R
[10] = BaF3 cells, EGFR DEL19 - C797S, read-out: GI50 DEL19 - C797S/BaF3
[11] = BaF3 cells, EGFR DEL19 - T790-C797S, read-out: GI50 DEL19 - T790-C797S/BaF3
[12] = BaF3 cells, EGFR L858R - T790-C797S, read-out: GI50 L858R - T790-C797S/BaF3
[13] = BaF3 cells, EGFR L858R, read-out: GI50 L858R/BaF3
[14] = EGFR DEL19 - T790M, read-out: GI50 DEL19 - T790M
[15] = EGFR (d746-750 C797S), 1 h at room temperature, read-out: IC50 @Del19-C797S
[16] = EGFR (C797S L858R), 1 h at room temperature, read-out: IC50 @L858-C797S

T1 sequence (P00533 25-1210 L858R): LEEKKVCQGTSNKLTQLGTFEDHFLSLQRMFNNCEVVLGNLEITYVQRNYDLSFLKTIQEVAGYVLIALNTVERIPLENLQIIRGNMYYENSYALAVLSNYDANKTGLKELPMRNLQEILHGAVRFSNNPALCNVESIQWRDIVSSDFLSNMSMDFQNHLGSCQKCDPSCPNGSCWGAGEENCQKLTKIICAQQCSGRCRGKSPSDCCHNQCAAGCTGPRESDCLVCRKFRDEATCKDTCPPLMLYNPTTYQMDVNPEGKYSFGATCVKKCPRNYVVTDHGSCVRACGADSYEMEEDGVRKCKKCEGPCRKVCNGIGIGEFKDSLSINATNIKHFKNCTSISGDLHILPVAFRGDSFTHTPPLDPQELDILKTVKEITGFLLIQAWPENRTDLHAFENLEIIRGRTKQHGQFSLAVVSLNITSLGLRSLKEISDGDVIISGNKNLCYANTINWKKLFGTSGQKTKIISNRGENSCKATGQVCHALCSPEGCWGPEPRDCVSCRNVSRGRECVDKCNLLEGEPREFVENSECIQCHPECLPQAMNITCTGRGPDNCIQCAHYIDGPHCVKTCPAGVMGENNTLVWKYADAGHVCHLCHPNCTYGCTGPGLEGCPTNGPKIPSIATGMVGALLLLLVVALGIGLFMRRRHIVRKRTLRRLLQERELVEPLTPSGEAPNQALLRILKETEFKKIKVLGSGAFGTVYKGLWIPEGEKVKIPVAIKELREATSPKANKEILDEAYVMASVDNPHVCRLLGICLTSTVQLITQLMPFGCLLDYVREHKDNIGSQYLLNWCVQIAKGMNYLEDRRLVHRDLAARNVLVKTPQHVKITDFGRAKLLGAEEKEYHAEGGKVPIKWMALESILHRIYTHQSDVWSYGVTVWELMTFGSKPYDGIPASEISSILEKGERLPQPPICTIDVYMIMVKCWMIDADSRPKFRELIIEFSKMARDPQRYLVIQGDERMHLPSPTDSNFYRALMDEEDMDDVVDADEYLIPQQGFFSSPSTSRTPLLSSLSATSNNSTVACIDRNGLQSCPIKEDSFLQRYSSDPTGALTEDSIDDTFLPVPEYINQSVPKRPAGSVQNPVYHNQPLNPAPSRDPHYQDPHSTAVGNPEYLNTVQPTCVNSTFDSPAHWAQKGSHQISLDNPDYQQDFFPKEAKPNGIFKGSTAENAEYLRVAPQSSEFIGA

IC50 (EGFR L858R; [3]) [nM] | IC50 (EGFR wild type; [4]) [nM] | GI50 (A-431; A-431 cells) [nM] | IC50 (EGFR Exon19Del/T790M; [5]) [nM] | IC50 [1, 6] [nM] | IC50 (EGFR Exon19Del; [7]) [nM] | IC50 (EGFR L858R/T790M; [8]) [nM] | IC50 (EGFR[T790M/C797S/L858R]; [9]) [nM] | GI50 [2, 10] [nM] | GI50 [2, 11] [nM] | GI50 [2, 12] [nM] | GI50 [2, 13] [nM] | GI50 [2, 14] [nM] | IC50 (EGFR (d746-750 C797S); [15]) [nM] | IC50 (EGFR (C797S L858R); [16]) [nM] | GI50 (PC-9) [nM] | SMILES | also measured
 |  |  |  |  |  |  |  |  |  |  |  |  |  |  |  | Cc1cc2cc(n1)-c1cnn(C)c1OCCN1CC3CCC(CC3)(C1)n1c(nc3ccccc31)NC2=O [Example B1, 15,21-Dimethyl-23-oxa-2,9,11,16,20,21,26-heptaazaheptacyclo[26.2.2.1^{1,26}.1^{13,17}.0^{2,10}.0^{3,8}.0^{18,22}]tetratriaconta-3,5,7,9,13,15,17(34),18(22),19-nonaen-12-one] | IC50 (EGFR L858R; 1 h, room temperature, read-out: IC50 (nM) @L858R): 1480 nM; IC50 (EGFR wild type; EGFR WT, 1 h, room temperature, read-out: IC50 (nM) @WT): > 5000 nM; GI50 (A-431; Homo sapiens, A-431, A-431 cells): 4390 nM; IC50 (EGFR Exon19Del/T790M; EGFR Del19-T790M, 1 h, room temperature, read-out: IC50 (nM) @Del19-T790M): 6.5 nM; IC50 ([1]; EGFR T790M-C797S-Del19, 1 mM ATP, 1 h, room temperature, read-out: IC50 (nM) @T790M - C797S - Del19): 13 nM; IC50 (EGFR Exon19Del; EGFR Del19, 1 mM ATP, 1 h, room temperature): 150 nM; IC50 (EGFR L858R/T790M; EGFR L858R-T790M, 1 h, room temperature, read-out: IC50 (nM) @L858R-T790M): 15 nM; IC50 (EGFR[T790M/C797S/L858R]; EGFR T790M-C797S-L858R, 1 h, room temperature, read-out: IC50 (nM) @T790M- C797S - L858R): 23 nM; GI50 ([2]; Mus musculus, BaF3, 72 h, BaF3 cells, EGFR DEL19 - C797S, read-out: GI50 DEL19 - C797S/BaF3): 95 nM; GI50 ([2]; Mus musculus, BaF3, 72 h, BaF3 cells, EGFR DEL19 - T790-C797S, read-out: GI50 DEL19 - T790-C797S/BaF3): 20 nM; GI50 ([2]; Mus musculus, BaF3, 72 h, BaF3 cells, EGFR L858R - C797S, read-out: GI50 L858R - C797S/BaF3): 736 nM; GI50 ([2]; Mus musculus, BaF3, 72 h, BaF3 cells, EGFR L858R - T790-C797S, read-out: GI50 L858R - T790-C797S/BaF3): 51 nM; GI50 ([2]; Mus musculus, BaF3, 72 h, BaF3 cells, EGFR L858R - T790M, read-out: GI50 L858R - T790M/BaF3): 98 nM; GI50 ([2]; Mus musculus, BaF3, 72 h, BaF3 cells, EGFR L858R, read-out: GI50 L858R/BaF3): 751 nM; GI50 ([2]; Mus musculus, BaF3, 72 h, EGFR DEL19 - T790M, read-out: GI50 DEL19 - T790M): 22 nM; IC50 (EGFR (d746-750 C797S); EGFR Del19-C797S, 1 h, room temperature, read-out: IC50 (nM) @Del19-C797S): 2200 nM; IC50 (EGFR (C797S L858R); EGFR L858-C797S, 1 h, room temperature, read-out: IC50 (nM) @L858-C797S): 112 nM; GI50 (PC-9; Homo sapiens, PC-9, 72 h): 410 nM
6 | 8.3 | 879 | 4.5 | 2 | 5.4 | 3.5 | 1.6 | 2 | 2 | 2 | 2 | 7 | 2.4 | 3.2 | 4 | Cc1cc2cc(n1)-c1cnn(C)c1OCCN1CC3CCC(C3)(C1)n1c(nc3ccc(N4CCC5(CCN(C)C5)CC4)cc31)NC2=O (single isomer, unassigned) [Example B52B] | GI50 ([2]; BaF3 cells, EGFR L858R - C797S, read-out: GI50 L858R - C797S/BaF3): 2 nM; GI50 ([2]; BaF3 cells, EGFR L858R - T790M, read-out: GI50 L858R - T790M/BaF3): 2 nM
377 | > 5000 | 1360 | 7.2 | 3.7 | 28 | 12 | 4.7 | 2 | 2 | 2 | 36 | 2 | 7.5 | 117 | 25 | COCCN(C)c1ccc2nc3n(c2c1)C12CCC(CN(CCOc4c(cnn4C)-c4cc(cc(C)n4)C(=O)N3)C1)C2 (single isomer, unassigned) [Example B46B] | 
